Test results published in patent US20230312473A1, “PROCESS FOR THE PREPARATION OF BIHETEROARYL COMPOUNDS AND CRYSTAL FORMS THEREOF” (Genentech, Inc., priority 2020, published 2023).

Experiments:
Assay type in all cases: physicochemical
[1] = Mechanical stress evaluation: dynamic vapor sorption (DVS)
Experimental: (§1) Compound 1, produced generally according to the method of Example 5, was evaluated for changes induced mechanical stress conditions, where crystallinity was evaluated by XRPD and where thermoanalytic characteristics were measured by differential scanning calorimetry (“DSC”), thermogravimetric analysis (“TGA”) and dynamic vapor sorption (“DVS”).
(§2) About 500 mg of compound 1 was dry grinded for about 5 minutes at ambient conditions with a mortar and pestle in order to simulate shear stresses encountered during a dry granulation. […] Furthermore, thermoanalytic data as measured by DSC, TGA, and DVS was only marginally different from compound 1 starting material (see Table 12 below).
(§3) The effect of pressure on compound 1 was performed to investigate whether phase transformation could occur during tableting. The conditions were 1.8 T/5 mm compact, 900 MPa, about 30 mg of compound 1, and a dwell time of about 6 seconds). The tablets were analyzed without further treatment and after gentle crushing of the tablets with a pestle. […] FIG. 2 pattern (b) is the XRPD pattern for crushed tablets. FIG. 2 pattern (c) is the XRPD pattern for tablets that were not crushed.
(§4) To simulate wet milling, wet manual grinding experiments were done. About 500 mg of compound 1 and about 0.5 mL water were kneaded for about 5 minutes with a mortar and pestle. About 100 mg of the wet material was analyzed by XRPD. The remainder of the material was dried overnight in an oven at 50° C. and ambient pressure. The dried material was analyzed by […], DSC, TGA, and DVS.

[2] = Solubility of compound (1) in solvents at 0° C. and the respective maximum process temperature; settings: for Solubility at max temp / Solubility at 0° C.: Form A
From the text: Prior art processes for preparing compound (1) used isopropyl acetate for final crystallization, having a yield of 84% at a relatively low concentration of 3.0%-w/w. […] It was known from previous qualitative experimental data as well as solubility prediction (numerical simulation) that the possible list is reduced since the solubility of GDC-0134 in alcohols is too low. From a process design perspective, a simple cooling crystallization is preferred over other designs like antisolvent or evaporative crystallization especially because of easier process control. […] Mainly esters but also acetonitrile, methyl isobutyl ketone (MIBK), and 2-MeTHF were on the shortlist for precise solubility determination. The solubility of compound (1) in these solvents is Table 5 for 0° C. and the respective maximum process temperatures. […] While the solubility in acetonitrile is very low even for high temperatures, mixtures of 2-MeTHF and acetonitrile show a synergistic effect at least for a 1:1 mixture. The solubility at 70° C. is the highest among the investigated systems, and the theoretical yield is close to 90%. Due to concerns with regard to the efficient removal of acetonitrile to acceptable levels after drying, 2-MeTHF/acetonitrile-mixtures were not further investigated, though. MIBK offered the highest theoretical yield plus a significant increase in concentration compared to iPrOAc and it was selected for a more detailed investigation

[3] = Solubility of compound I free base in MIBK
Experimental: In one aspect, the dissolution solvent is MIBK. The solubility of compound I free base in MIBK is about 8.2 wt. % at 90° C., about 5.2 wt. % at 80° C., about 4 wt. % at 70° C., about 3 wt. % at 60° C., about 2 wt. % at 50° C., about 1.4 wt. % at 40° C., about 1 wt. % at 30° C., about 0.9 wt. % at 20° C., about 0.6 wt. % at 10° C., about 0.4 wt. % at 0° C., and about 0.2 wt. % at −10° C. In some aspects, a 6.5 wt. % to 7.5 wt. % solution of compound I free base in MIBK is formed at 90° C. Following filtration at about 90° C., the solution may be cooled to about 75° C. following by addition of seed crystals to form a slurry, and optionally held (aged) at that temperature for a period of time, such as from about 0.5 to about 2 hours. The slurry may then be cooled, such as for instance to about −10° C., and aged at that temperature for a period of time, such as from about 2 to about 10 hours. Solid crystallized compound I may be isolated, and washed with chilled MIBK (e.g., at about 0° C. to about 10° C.) and then with chilled alcohol, such as ethanol (e.g., at about 0° C. to about 10° C.). Crystalline compound I may be dried at a temperature of from about 40° C. to about 70° C. (e.g., 60° C.) under vacuum (e.g., about 20 mbar or less) until a constant weight is achieved.

[4] = Mechanical stress evaluation: crystallinity by XRPD
Experimental: as §1
In a first evaluation, compound 1 was micronized by jet milling and evaluated by XRPD and DSC.
as §2, §3, §4

Question: For `Nc1ncc(-c2cc(N3C[C@@H]4C[C@H]3CO4)nc(N3CCC(F)(F)C3)n2)cc1OC(F)F` [Compound 1, 5-(6-((1S,4S)-2-oxa-5-azabicyclo[2.2.1]heptan-5-yl)-2-(3,3-difluoropyrrolidin-1-yl)pyrimidin-4-yl)-3-(difluoromethoxy)pyridin-2-amine], which “DVS Δm (0-90% RH)” value ([1]; after Dry Granulation (dry grinding about 5 minutes, mortar and pestle)) is on record?
Answer: 0.1% m/m

Question: What about the “DVS Δm (0-90% RH)” value ([1]; after Tableting (900 MPa)) of the same compound?
Answer: <0.1% m/m

Question: What about the “DVS Δm (0-90% RH)” value ([1]; after Tableting (crushing)) of the same compound?
Answer: 0.1% m/m

Question: What about the “DVS Δm (0-90% RH)” value ([1]; after Wet Granulation (wet manual grinding with water, dried at 50° C.)) of the same compound?
Answer: <0.1% m/m

Question: And the “hygroscopicity by DVS” value ([1]; compacted (tableted) samples versus starting material)?
Answer: did not show a significant increase of hygroscopicity

Question: What about the “DVS Δm (0-90% RH)” value ([1]; untreated compound 1 starting material) of the same compound?
Answer: <0.1% m/m

Question: And the solubility in alcohols ([2]; previous qualitative experimental data and solubility prediction)?
Answer: too low

Question: And the “Solubility at max temp” value ([2]; solvent: 2-MeTHF:MeCN (1:1), 70 ° C.)?
Answer: 7.3 w/w %

Question: And the “Solubility at 0° C.” value ([2]; solvent: 2-MeTHF:MeCN (1:1))?
Answer: 0.8 w/w %

Question: And the “Solubility at max temp” value ([2]; solvent: 2-MeTHF:MeCN (3:1), 70 ° C.)?
Answer: 2.2 w/w %

Question: And the “Solubility at 0° C.” value ([2]; solvent: 2-MeTHF:MeCN (3:1))?
Answer: 1.7 w/w %

Question: And the “Solubility at max temp” value ([2]; solvent: 2-MeTHF, 70 ° C.)?
Answer: 5.2 w/w %

Question: And the “Solubility at 0° C.” value ([2]; solvent: 2-MeTHF)?
Answer: 1.6 w/w %

Question: What about the “Solubility at max temp” value ([2]; solvent: Acetonitrile, 70 ° C.) of the same compound?
Answer: 1.4 w/w %

Question: What about the “Solubility at 0° C.” value ([2]; solvent: Acetonitrile) of the same compound?
Answer: 0.5 w/w %

Question: What about the “Solubility at max temp” value ([2]; solvent: Ethylacetate, 70 ° C.) of the same compound?
Answer: 4.8 w/w %

Question: And the “Solubility at 0° C.” value ([2]; solvent: Ethylacetate)?
Answer: 0.9 w/w %

Question: And the “Solubility at max temp” value ([2]; solvent: MIBK, 80 ° C.)?
Answer: 5.2 w/w %

Question: And the “Solubility at 0° C.” value ([2]; solvent: MIBK)?
Answer: 0.4 w/w %

Question: And the “Solubility at max temp” value ([2]; solvent: Methylacetate, 50 ° C.)?
Answer: 4.9 w/w %

Question: What about the “Solubility at 0° C.” value ([2]; solvent: Methylacetate) of the same compound?
Answer: 1.3 w/w %

Question: What about the “Solubility at max temp” value ([2]; solvent: i-propyl acetate, 80 ° C.) of the same compound?
Answer: 4.2 w/w %

Question: What about the “Solubility at 0° C.” value ([2]; solvent: i-propyl acetate) of the same compound?
Answer: 0.4 w/w %

Question: And the “Solubility at max temp” value ([2]; solvent: n-propyl acetate, 80 ° C.)?
Answer: 4.3 w/w %

Question: And the “Solubility at 0° C.” value ([2]; solvent: n-propyl acetate)?
Answer: 0.8 w/w %

Question: And the “solubility in MIBK” value ([3]; 0° C.)?
Answer: about 0.4 wt. %

Question: And the “solubility in MIBK” value ([3]; 10° C.)?
Answer: about 0.6 wt. %

Question: What about the “solubility in MIBK” value ([3]; 20° C.) of the same compound?
Answer: about 0.9 wt. %

Question: And the “solubility in MIBK” value ([3]; 30° C.)?
Answer: about 1 wt. %

Question: What about the “solubility in MIBK” value ([3]; 40° C.) of the same compound?
Answer: about 1.4 wt. %

Question: What about the “solubility in MIBK” value ([3]; 50° C.) of the same compound?
Answer: about 2 wt. %

Question: And the “solubility in MIBK” value ([3]; 60° C.)?
Answer: about 3 wt. %

Question: And the “solubility in MIBK” value ([3]; 70° C.)?
Answer: about 4 wt. %

Question: What about the “solubility in MIBK” value ([3]; 80° C.) of the same compound?
Answer: about 5.2 wt. %

Question: And the “solubility in MIBK” value ([3]; 90° C.)?
Answer: about 8.2 wt. %

Question: What about the “solubility in MIBK” value ([3]; −10° C.) of the same compound?
Answer: about 0.2 wt. %

Question: What about the “crystallinity by XRPD” value ([4]; after manual wet milling and after hot drying of wet milled material) of the same compound?
Answer: No reduction in the crystallinity

Question: And the “crystallinity by XRPD” value ([4]; dry grinded about 5 minutes with mortar and pestle (simulated dry granulation))?
Answer: No reduction of crystallinity

Question: And the influence on crystallinity ([4]; micronized by jet milling)?
Answer: no significant influence on crystallinity

Question: What about the “crystallinity by XRPD” value ([4]; tableting, 900 MPa, dwell about 6 seconds, with and without crushing of the tablets) of the same compound?
Answer: some reduction of crystallinity
